Results from patent publication US6794544B2, “Method for the preparation of tetrahydrobenzothiepines” (Pharmacia Corporation, priority 2000, dated 2004).

Assay: Water uptake experiments (Dynamic Vapor Sorption, water sorption/desorption isotherms)
Format: physicochemical
Procedure: A dry sample of the crystalline form having a melting point or a decomposition point of about 278° C. to about 285° C. (i.e., Form 11) typically gains less than about 1% of its own weight when equilibrated under 80% relative humidity (RH) air at 25° C. […] For the present purposes, the term “essentially 0% RH” means less than about 1% RH. The term “equilibrated” means that the change in weight of a sample over time at a given relative humidity is less than 0.0003% ((dm/dt)/m0×100, where m is mass in mg, m0 is initial mass, and t is time in minutes).
Water sorption experiments are performed on a Dynamic Vapor Sorption (DVS) apparatus (DVS-1000 manufactured by Surface Measurements Systems, Inc.). Experiments are performed at 25° C. by initially drying the material of interest (about 10 mg sample) from 30% relative humidity (RH) (ambient room condition) to about 9% RH in a stepwise fashion (10% RH step) by purging with dry nitrogen until no further weight change was observed. The samples are then exposed to a stepwise (10% RH steps) increase in RH from about 0 to about 90% RH. Each successive step is initiated when the change in weight over time at the relative humidity was less than 0.0003% ((dm/dt)/m0×100, where m is mass in mg, m0 is initial mass, and t is time in minutes). […] The data are collected on a computer and analyzed using SMS′ proprietary MS-Excel macro interface software.

weight gain of the sample (of its own weight) (dried at essentially 0% RH at about 25° C. under dry nitrogen, then equilibrated under about 80% RH air at about 25° C.): less than 1%
hygroscopicity (dry sample equilibrated under 80% RH air at 25° C.): essentially nonhygroscopic
Compound: CCCCC1(CCCC)CS(=O)(=O)c2ccc(N(C)C)cc2[C@@H](c2ccc(OCc3ccc(C[N+]45CCN(CC4)CC5)cc3)cc2)[C@H]1O [Form II, (4R,5R)-1-((4-(4-(3,3-dibutyl-7-(dimethylamino)-2,3,4,5-tetrahydro-4-hydroxy-1,1-dioxido-1-benzithiepin-5-yl)phenoxy)methyl)phenyl)methyl-4-aza-1-azoniabicyclo[2.2.2]octane chloride]
